These results are taken from patent US20100292137A1, “Antibiotics and Methods For Producing Them” (priority 2006, published 2010).

Assay [1] deals with M. tuberculosis. The conditions noted are these: tlyA mutants 315-A, C-202 and C-211; cited from earlier work.
Assay [2] has as its system M. tuberculosis. It is filed as cell-based, Mycobacterium tuberculosis.
Assay [3] relates to M. tuberculosis rrl mutant C-401. Type of assay: cell-based, Mycobacterium tuberculosis.

Where two headings read alike, the source gives them in different places.

Regarding `NCC[C@H](O)C(=O)N[C@@H]1C[C@H](N)[C@@H](O[C@H]2O[C@H](CN)[C@@H](O)[C@H](O)[C@H]2O)[C@H](O)[C@H]1O[C@H]1O[C@H](CO)[C@@H](O)[C@H](N)[C@H]1O` [amikacin], the susceptibility result in the assay on M. tuberculosis [1] and with M. tuberculosis [2] was “susceptible” throughout.
As to capreomycin, the “effect on growth rate” value in assay [3] was “do not noticeably slow the growth rate”.
